Experimental data: patent US9073855B2, “BCL-2 selective apoptosis-inducing agents for the treatment of cancer and immune diseases” (AbbVie Inc., priority 2008, dated 2015)

How the values were obtained:
GST-Bcl-2 = GST-Bcl-2 (Homo sapiens, UniProt P10415); assay: TR-FRET binding assay, GST-Bcl-2 with F-Bak peptide probe; conditions: for Ki: TR-FRET Binding Affinity
In short: (§1)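 Ki was derived with Wang's equation for competitive binding of two ligands. The read-out was time-resolved fluorescence after a 3 h room-temperature incubation, using a Tb-labelled antibody donor and the F-Bak peptide acceptor (excitation 340/35 nm). Test compounds entered as DMSO serial dilutions starting at 50 μM, which was the 2× concentration.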

GST-Bcl-XL = GST-Bcl-XL (Homo sapiens, UniProt Q07817); assay: TR-FRET binding assay, GST-Bcl-XL with F-Bak peptide probe; conditions: TR-FRET Binding Affinity
GST-Bcl-XL, sequence (Q07817 whole entry): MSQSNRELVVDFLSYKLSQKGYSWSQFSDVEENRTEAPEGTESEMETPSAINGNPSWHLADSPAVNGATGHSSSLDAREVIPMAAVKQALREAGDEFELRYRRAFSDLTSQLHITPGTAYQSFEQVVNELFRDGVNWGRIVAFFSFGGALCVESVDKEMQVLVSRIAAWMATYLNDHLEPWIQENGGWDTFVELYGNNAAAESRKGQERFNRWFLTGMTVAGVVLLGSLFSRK
In short: as §1

[1] = GST-Bcl-XL, F-Bak peptide probe
[2] = ratio of TR-FRET Ki values, Bcl-XL over Bcl-2
[3] = TR-FRET, Bcl-XL Ki divided by Bcl-2 Ki

GST-Bcl-2, sequence (P10415 whole entry): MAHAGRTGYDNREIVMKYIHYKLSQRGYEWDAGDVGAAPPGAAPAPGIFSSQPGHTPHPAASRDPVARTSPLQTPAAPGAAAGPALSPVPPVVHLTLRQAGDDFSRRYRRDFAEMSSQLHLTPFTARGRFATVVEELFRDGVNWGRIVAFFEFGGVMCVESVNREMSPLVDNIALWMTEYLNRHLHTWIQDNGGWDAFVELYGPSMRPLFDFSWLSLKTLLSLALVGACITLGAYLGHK

SMILES	Ki (GST-Bcl-2; GST-Bcl-2, F-Bak peptide probe)	Ki (GST-Bcl-XL; [1])	Binding selectivity ratio (Bcl-XL Ki/Bcl-2 Ki) (GST-Bcl-2; [2])	Ki (GST-Bcl-2)	Binding selectivity ratio (Bcl-XL Ki/Bcl-2 Ki) (GST-Bcl-2; [3])	Ki (GST-Bcl-XL)
CN1CCN(CCNc2ccc(S(=O)(=O)NC(=O)c3ccc(N4CCN(CC5=C(c6ccc(Cl)cc6)CC(C)(C)CC5)CC4)cc3Oc3ccc4[nH]ccc4c3)cc2[N+](=O)[O-])CC1 [Example 95, 4-(4-{[2-(4-chlorophenyl)-4,4-dimethylcyclohex-1-en-1-yl]methyl}piperazin-1-yl)-2-(1H-indol-5-yloxy)-N-[(4-{[2-(4-methylpiperazin-1-yl)ethyl]amino}-3-nitrophenyl)sulfonyl]benzamide]	0.06 nM	15.7 nM				
CC1(C)CCC(CN2CCN(c3ccc(C(=O)NS(=O)(=O)c4cnc(OC[C@H]5CC[C@H](O)CC5)c(Cl)c4)c(Oc4cccc5[nH]ncc45)c3)CC2)=C(c2ccc(Cl)cc2)C1 [Example 421, Trans-N-({5-chloro-6-[(4-hydroxycyclohexyl)methoxy]pyridin-3-yl}sulfonyl)-4-(4-{[2-(4-chlorophenyl)-4,4-dimethylcyclohex-1-en-1-yl]methyl}piperazin-1-yl)-2-(1H-indazol-4-yloxy)benzamide]	0.026 nM	54 nM	2089.5			
CC1(C)CCC(CN2CCN(c3ccc(C(=O)NS(=O)(=O)c4ccc(NCC5CN(C6COC6)CCO5)c([N+](=O)[O-])c4)c(Oc4cccc5[nH]cnc45)c3)CC2)=C(c2ccc(Cl)cc2)C1 (stereo not shown) [Example 433, 2-(1H-benzimidazol-4-yloxy)-4-(4-{[2-(4-chlorophenyl)-4,4-dimethylcyclohex-1-en-1-yl]methyl}piperazin-1-yl)-N-[(3-nitro-4-{[(4-oxetan-3-ylmorpholin-2-yl)methyl]amino}phenyl)sulfonyl]benzamide]	< 0.01 nM	2.29 nM				
CC1(C)CCC(CN2CCN(c3ccc(C(=O)NS(=O)(=O)c4cnc(O[C@@H]5CCN(CC(F)F)C5)c(Cl)c4)c(Oc4cccc5[nH]ncc45)c3)CC2)=C(c2ccc(Cl)cc2)C1 [Example 422, N-[(5-chloro-6-{[(3R)-1-(2,2-difluoroethyl)pyrrolidin-3-yl]oxy}pyridin-3-yl)sulfonyl]-4-(4-{[2-(4-chlorophenyl)-4,4-dimethylcyclohex-1-en-1-yl]methyl}piperazin-1-yl)-2-(1H-indazol-4-yloxy)benzamide]	0.071 nM	290 nM	4073.4			
CC1(C)CCC(CN2CCN(c3ccc(C(=O)NS(=O)(=O)c4cnc(NC5CCN(C6CC6)CC5)c(Cl)c4)c(Oc4cccc5[nH]ncc45)c3)CC2)=C(c2ccc(Cl)cc2)C1 [Example 448, N-({5-chloro-6-[(1-cyclopropylpiperidin-4-yl)amino]pyridin-3-yl}sulfonyl)-4-(4-{[2-(4-chlorophenyl)-4,4-dimethylcyclohex-1-en-1-yl]methyl}piperazin-1-yl)-2-(1H-indazol-4-yloxy)benzamide]				0.005 nM	3119.3	14.6 nM
CC1(C)CCC(CN2CCN(c3ccc(C(=O)NS(=O)(=O)c4ccc(NC5CCN(C6CCOCC6)CC5)c([N+](=O)[O-])c4)c(Oc4cccc5[nH]cnc45)c3)CC2)=C(c2ccc(Cl)cc2)C1 [Example 417, 2-(1H-benzimidazol-4-yloxy)-4-(4-{[2-(4-chlorophenyl)-4,4-dimethylcyclohex-1-en-1-yl]methyl}piperazin-1-yl)-N-({3-nitro-4-[(1-tetrahydro-2H-pyran-4-ylpiperidin-4-yl)amino]phenyl}sulfonyl)benzamide]	0.046 nM	3.99 nM	87.1			
CN(C)CCCNc1ccc(S(=O)(=O)NC(=O)c2ccc(N3CCN(Cc4ccccc4-c4ccc(Cl)cc4)CC3)cc2Oc2ccccc2)cc1C#N [Example 90, 4-{4-[(4′-chloro-1,1′-biphenyl-2-yl)methyl]piperazin-1-yl}-N-[(3-cyano-4-{[3-(dimethylamino)propyl]amino}phenyl)sulfonyl]-2-phenoxybenzamide]	2.13 nM	284 nM				
CC1(C)CCC(CN2CCN(c3ccc(C(=O)NS(=O)(=O)c4ccc(OCC5COCCO5)c(Cl)c4)c(Oc4cccc5[nH]ncc45)c3)CC2)=C(c2ccc(Cl)cc2)C1 (stereo not shown) [Example 502, N-{[3-chloro-4-(1,4-dioxan-2-ylmethoxy)phenyl]sulfonyl}-4-(4-{[2-(4-chlorophenyl)-4,4-dimethylcyclohex-1-en-1-yl]methyl}piperazin-1-yl)-2-(1H-indazol-4-yloxy)benzamide]				0.025 nM	5754.1	145 nM
CN(C)CC[C@H](Nc1ccc(S(=O)(=O)NC(=O)c2ccc(N3CCN(Cc4ccccc4-c4ccc(Cl)cc4)CC3)cc2Oc2ccccc2)cc1[N+](=O)[O-])c1cccs1 [Example 161, 4-{4-[(4′-chloro-1,1′-biphenyl-2-yl)methyl]piperazin-1-yl}-N-[(4-{[(1S)-3-(dimethylamino)-1-thien-2-ylpropyl]amino}-3-nitrophenyl)sulfonyl]-2-phenoxybenzamide]	1.71 nM	> 660 nM				
CC1(C)CCC(CN2CCN(c3ccc(C(=O)NS(=O)(=O)c4cnc(NCC5(F)CCOCC5)c(Cl)c4)c(Oc4cccc5[nH]ncc45)c3)CC2)=C(c2ccc(Cl)cc2)C1 [Example 413, N-[(5-chloro-6-{[(4-fluorotetrahydro-2H-pyran-4-yl)methyl]amino}pyridin-3-yl)sulfonyl]-4-(4-{[2-(4-chlorophenyl)-4,4-dimethylcyclohex-1-en-1-yl]methyl}piperazin-1-yl)-2-(1H-indazol-4-yloxy)benzamide]	0.12 nM	96.8 nM	803.8			
CC1(C)CCC(CN2CCN(c3ccc(C(=O)NS(=O)(=O)c4ccc(OCC5CCC6(CC5)COC6)c([N+](=O)[O-])c4)c(Oc4cccc5[nH]ncc45)c3)CC2)=C(c2ccc(Cl)cc2)C1 [Example 535, 4-(4-{[2-(4-chlorophenyl)-4,4-dimethylcyclohex-1-en-1-yl]methyl}piperazin-1-yl)-2-(1H-indazol-4-yloxy)-N-{[3-nitro-4-(2-oxaspiro[3.5]non-7-ylmethoxy)phenyl]sulfonyl}benzamide]				< 0.01 nM	>250.5	2.5 nM
O=C(NS(=O)(=O)c1cnc(OCC2(F)CCN(C3COC3)CC2)c(Cl)c1)c1ccc(N2CCN(CC3=C(c4ccc(Cl)cc4)CCC(F)(F)C3)CC2)cc1Oc1cccc2[nH]ncc12 [Example 522, N-[(5-chloro-6-{[4-fluoro-1-(oxetan-3-yl)piperidin-4-yl]methoxy}pyridin-3-yl)sulfonyl]-4-(4-{[2-(4-chlorophenyl)-5,5-difluorocyclohex-1-en-1-yl]methyl}piperazin-1-yl)-2-(1H-indazol-4-yloxy)benzamide]				< 0.01 nM	>207.9	2.08 nM
CN1CC[C@H](Nc2ccc(S(=O)(=O)NC(=O)c3ccc(N4CCN(CC5=C(c6ccc(Cl)cc6)CC(C)(C)CC5)CC4)cc3Oc3ccc4[nH]ccc4c3)cc2[N+](=O)[O-])C1 [Example 234, 4-(4-{[2-(4-chlorophenyl)-4,4-dimethylcyclohex-1-en-1-yl]methyl}piperazin-1-yl)-2-(1H-indol-5-yloxy)-N-[(4-{[(3S)-1-methylpyrrolidin-3-yl]amino}-3-nitrophenyl)sulfonyl]benzamide]	0.369 nM	24.5 nM				
